This note sets out measurements from patent US6043258A (Eli Lilly and Company, priority 1998, dated 2000).

Test [1] deals with muscarinic receptors (^3 H-oxotremorine-M binding). The experiment in a line: ^3 H-oxotremorine-M binding inhibition. The settings on record: radioligand ^3 H-oxotremorine-M; read-out: inhibition constant (Ki), binding of ^3 H-oxotremorine-M.
The test system of test [2] is m4 receptors (CHO m4 cells). The test is described as follows: cAMP formation in CHO m4 cells treated with pertussis toxin. It counts as cell-based. From the text:
Muscarinic agonists stimulate the formation of cAMP up to 10 fold in CHO m4 cells treated with pertussisi toxin and the pharmacology is consistent with the mediation by m4 receptors. Eckols K. Soc. Neurosci Abstr., 21:2040 (1995).
(cAMP levels reflect the balance of adenylyl cyclase and phosphodiesterase activity.)

Another test relates to D2 receptor subtype. The experiment in a line: pharmacological studies at D2 receptor subtype.
A further test deals with 5HT1D receptor subtype. The experiment in a line: 5HT1D receptor affinity. It is filed as binding.

A word on the Ki: it is the dissociation constant of the complex between target and ligand, obtained from inhibition or displacement.

On to `CCCCCCOc1nsnc1C1=CCCN(C)C1` [xanomeline, 3-(4-hexyloxy-1,2,5-thiadiazol-3-yl)-1,2,5,6-tetrahydro-1-methylpyridine], for which the Ki in test [1] came out at 0.002 µM; at 5HT1D receptor subtype it was 0.18 µM. In addition, the “stimulation of the formation of cAMP” value in test [2] was “efficaciously and potently stimulated the formation of CAMP”. Also, the “activity at the D2 receptor subtype” value in the test with D2 receptor subtype is recorded as “active at the D2 receptor subtype”.
